The subject of the experiment is SCF Hoxb8-ER progenitors. The note with it: SCF medium supplemented with the cytokine. The text has this:
Cells were photographed 6 days after differentiation was initiated by removal of estradiol. […] Distribution of mature cell types is indicated below each column, as measured at the end of the 6 day differentiation.

From US8795650B2, “Derivation of unlimited quantities of neutrophils or monocyte/dendritic cells” (The Regents of the University of California, priority 2004, dated 2014) come the findings set out here.

On to Erythropoietin, for which the “impact on neutrophil-committed differentiation” value is “no impact”. As for GM-CSF, the “progenitors maturing as macrophages” value (6 day differentiation) is given as 16%. The substance also came in with an expansion during differentiation (estradiol removed) of 830 fold.
